Consider eight compounds from US10183937B2, “1,3-thiazol-2-yl substituted benzamides” (BAYER AKTIENGESELLSCHAFT, priority 2014, dated 2019).

Series [1] is described as follows: In vitro metabolic stability in liver microsomes (calculation of CL and Fmax). Particulars: 1 μM, maximal oral bioavailability calculated from half-life. The format is in vitro ADME, human. On the procedure:
In Vitro Metabolic Stability Assays Determination of In Vitro Metabolic Stability in Microsomes (Including Calculation of Hepatic In Vivo Blood Clearance (CL) and of Maximal Oral Bioavailability (Fmax))
The metabolic assay was started shortly afterwards by adding the test compound to the incubation at a final volume of 1 mL. Organic solvent in the incubations was limited to ≤0.01% dimethylsulfoxide (DMSO) and ≤1% acetonitrile. […] Samples were frozen at −20° C. overnight, subsequently centrifuged for 15 minutes at 3000 rpm and the supernatant was analyzed with an Agilent 1200 HPLC-system with LCMS/MS detection.
The half-life of a test compound was determined from the concentration-time plot. From the half-life (kel: slope of concentration-time plot; half-life=ln 2/kel) the intrinsic clearances were calculated. Together with the additional parameters liver blood flow, specific liver weight and microsomal protein content the hepatic in vivo blood clearance (CL) and the maximal oral bioavailability (Fmax) were calculated for the different species.
(§1) Metabolic instability is often the main clearance mechanism of xenobiotica leading to a high CL and low bioavailability which may eventually result in a short half-life and a low exposure after oral administration. Thus, reducing the susceptibility of metabolic degradation usually leads to a more favourable pharmacokinetic profile. When using liver microsomes as incubation matrix main phase I metabolic reactions, typically oxidoreductive reactions by cytochrome P450 enzymes and flavin mono-oxygenases (FMO) and hydrolytic reactions by esterases/amidases/epoxidhydrolases, are described. When the incubation of the test compound is performed in a hepatocyte matrix all potential hepatic metabolic processes (phase I and phase II) are covered.

Series [2] concerns rat hepatocytes. The series is described as follows: In vitro metabolic stability in rat hepatocytes. The format is in vitro ADME, Han Wistar rats. To be noted: 1 μM, maximal oral bioavailability calculated from half-life. The method, then: Determination of In Vitro Metabolic Stability in Rat Hepatocytes (Including Calculation of Hepatic In Vivo Blood Clearance (CL))
Hepatocytes from Han Wistar rats were isolated via a 2-step perfusion method. After perfusion, the liver was carefully removed from the rat: the liver capsule was opened and the hepatocytes were gently shaken out into a Petri dish with ice-cold Williams' medium E (WME). The resulting cell suspension was filtered through sterile gaze in 50 mL falcon tubes and centrifuged at 50×g for 3 min at room temperature. The cell pellet was resuspended in 30 mL WME and centrifuged through a Percoll® gradient for 2 times at 100×g. The hepatocytes were washed again with WME and resuspended in medium containing 5% FCS. Cell viability was determined by trypan blue exclusion. […] The test compound was added to a final concentration of 1 μM. […] Samples were frozen at −20° C. overnight, subsequently centrifuged for 15 minutes at 3000 rpm and the supernatant was analyzed with an Agilent 1200 HPLC-system with LCMS/MS detection.
The half-life of a test compound was determined from the concentration-time plot. From the half-life (kel: slope of concentration-time plot; half-life=ln 2/kel) the intrinsic clearances were calculated. Together with the additional parameters liver blood flow, amount of liver cells in vivo and in vitro.
as §1

For series [3] the following is noted: clinical PhII trials; attributed to blockade of P2X2/3 channels; cited from earlier work.
A short description of series [4]: Human liver cytosol stability assay. The format is in vitro ADME. To be noted: 4 h incubation. The method, then: Human Liver Cytosol Stability Assay
Method description: Human liver cytosol (pooled, >30 male and female donors) was incubated with individual test compounds in order to compare the extent of depletion of test compound and formation of the respective oxidised metabolite.
An incubation volume of 1000 μL was used. The test compound was added from a stock solution in acetonitrile at 1 or 10 μM concentration in the incubation. Incubations were performed at 37° C. Reactions were stopped at 0 h and 4 h after incubation by addition of 100 μL acetonitrile to 250 μL of incubation mixture. Precipitated proteins were removed by centrifugation at approximately 3000 rpm. The supernatants were stored at approximately −20° C. until they were analysed. […]
Data analysis: The depletion of the test compound and formation of the corresponding metabolites were determined by decrease or increase of the corresponding peak area in the chromatogram after UV detection at approximately 300 nm 4 h after incubation compared to that at 0 h after incubation. […]

Series [5] has as its system vaginal hyperalgesia. The series is described as follows: Rat dyspareunia model (visceromotor response to vaginal distension). The format is in vivo, Sprague Dawley rats. Particulars: 15 mg/kg oral b.i.d. during 2 weeks.
Description: The visceromotor response (VMR) to vaginal distension was used in conscious animals as an objective measure of vaginal sensitivity. […] To measure VMR response, 2 Teflon-coated wire electrodes were sutured in the external oblique abdominal muscle, and tunneled subcutaneously to be exteriorized at the base of the neck for future access. On the day of VMR assessment, a lubricated small balloon (1 cm length) was inserted into the mid-vaginal canal. The balloon catheter was secured to the base of the tail and connected to a volume controller/timing device (infusion pump) for balloon distension. The vaginal balloon was inflated to ramp intensities of distension (0.05 ml increments every 20 sec.) to a maximal volume of 0.8 ml. The electrodes were connected to an amplifier (Animal Bio Amp, ADInstruments), and the abdominal electromyographic signal was recorded using a data acquisition system (PowerLab, ADInstruments) for off-line analysis using LabChart version 7. The number of abdominal muscle contractions was counted manually for each 0.1 ml distension step, as an index of vaginal pain. […] All data were expressed as mean±standard deviation (s.d.), for the number (n) of measured rats per group. […] Planned comparison of means (matched-volume versus vehicle) was performed using a Bonferroni post hoc test, provided that a main effect was detected. […]

`Cc1cnc(-c2cc(OC(C)C(C)O)cc(C(=O)N[C@H](C)c3cnc(C(F)(F)F)nc3)c2)s1` (single isomer, unassigned) [Example 339]: in series [1], the “Human liver microsome Fmax” value is given as 94%. The “Rat hepatocyte Fmax” value in series [2] is recorded as 52%.
The matching figures for `Cc1cnc(-c2cc(OC(C)C(C)O)cc(C(=O)N[C@H](C)c3cnc(C(F)(F)F)nc3)c2)s1` (single isomer, unassigned) [Example 163]: 100% and 53%.
In the case of `COc1cc(C(C)C)c(Oc2cnc(N)nc2N)cc1S(N)(=O)=O` [AF-219], in series [3], the “taste side effect in treated subjects” value was “taste disturbances”.
For `Cc1cnc(-c2cc(O[C@H]3CCOC3)cc(C(=O)N[C@H](C)c3cnc(C(F)(F)F)nc3)c2)s1` [Example 26, 3-(5-Methyl-1,3-thiazol-2-yl)-5-[(3S)-tetrahydrofuran-3-yloxy]-N-{(1R)-1-[2-(trifluoromethyl)pyrimidin-5-yl]ethyl}benzamide], the “Human liver microsome Fmax” value in series [1] is on record as 67%. In series [2], the “Rat hepatocyte Fmax” value is 56%. The “Test compound turnover after 4 h” value in series [4] was 0.9%.
On to `Cc1cnc(-c2cc(OC(C)C(C)O)cc(C(=O)N[C@H](C)c3ccc(C(F)(F)F)nn3)c2)s1` (single isomer, unassigned) [Example 183], for which the “Human liver microsome Fmax” value in series [1] is on record as 74%. Also, in series [2], the “Rat hepatocyte Fmax” value is 43%.
Consider `CCc1cnc(-c2cc(OC[C@H]3CN(C)CCO3)cc(C(=O)N[C@H](C)c3ccc(C(F)(F)F)nn3)c2)s1` [Example 419, 3-(5-ethyl-1,3-thiazol-2-yl)-5-{[(2R)-4-methyl-morpholin-2-yl]methoxy}-N-{(1R)-1-[6-(trifluoromethyl)pyridazin-3-yl]ethyl} benzamide], for which the “Human liver microsome Fmax” value in series [1] is 74%. The “Rat hepatocyte Fmax” value in series [2] is given as 51%.
On to `Cc1cnc(-c2cc(OC(C)C(C)O)cc(C(=O)N[C@H](C)c3cnc(C(F)(F)F)nc3)c2)s1` (single isomer, unassigned) [Example 340], for which the “Human liver microsome Fmax” value in series [1] is 90%. Besides, the “Rat hepatocyte Fmax” value in series [2] is recorded as 64%.
For `Cc1cnc(-c2cc(O[C@@H]3CCOC3)cc(C(=O)N[C@H](C)c3cnc(C(F)(F)F)nc3)c2)s1` [Example 11, 3-(5-Methyl-1,3-thiazol-2-yl)-5-[(3R)-tetrahydrofuran-3-yloxy]-N-{(1R)-1-[2-(trifluoromethyl)pyrimidin-5-yl]ethyl}benzamide], the “Human liver microsome Fmax” value in series [1] is listed as 57%. In addition, the “Rat hepatocyte Fmax” value in series [2] is on record as 52%. Also, the “Test compound turnover after 4 h” value in series [4] is given as 0.9%. In series [5], the “Vaginal hyperalgesia compared to vehicle-treated animals” value is recorded as “decreased vaginal hyperalgesia compared to vehicle-treated animals”.
